Patent publication US8470607B2, “Inhibition of angiogenesis” (Morphotek, Inc., priority 2008, dated 2013)

System: VEGF-stimulated angiogenesis
Assay: CAM assay of VEGF-stimulated angiogenesis: intravenous TM-601, comparison and combination with Avastin and Lucentis
Format: in vivo, chick
Settings: for relative potency of inhibition of VEGF-stimulated angiogenesis, molar basis: TM-601, Avastin and Lucentis compared on a molar basis
Experimental: The CAM assay was performed using two different methods, depending on the contract laboratory where it was performed. At one contract laboratory, fertilized chick eggs were incubated at 37° C. with 55% humidity. Ten days after fertilization, a small hole was punctured with a hypodermic needle in the area of the shell concealing the air sac. A second hole was punctured in the shell on the broadside of the egg directly over an avascular portion of the embryonic membrane. A false air sac was created beneath the second hold by the application of negative pressure to the first hole, which caused the membrane to separate from the shell. A window approximately 1.0 cm^2 in area was cut in the shell over the dropped CAM with the use of a small grinding wheel, allowing direct access to the underlying CAM. Filter disks were soaked in 3 mg/mL rtisone acetate and subsequently air dried under sterile conditions. […] Sterile filter disks with VEGF at 2 μg/mL were placed on the growing CAMs. […] CAMs were harvested on the 3rd day of stimulation. The CAM tissue directly beneath the filter disk was removed from the embryos and tissues were washed three times with PBS. Blood vessel branch points in the 5 m filter disk area were counted at 30× magnification as a quantitative indicator of vascular sprouting in response to the pro-angiogenic compounds. Each egg was analyzed by two different operators and the average reading was reported. The following equation was used to calculate the mean percent angiogenesis inhibition with VEGF-stimulation:
At the second contract laboratory, the CAM assay was performed as follows. Fertilized chicken eggs were incubated at 37.5° C. in a humidified egg incubator with forced air circulation. […] On embryonic day 7, the CAM membranes were examined and quantitatively analyzed for new blood vessel formation after injection of dyed non-fat dry milk solution. The treatment effects on angiogenesis were evaluated by determining vascular density indexed (VDI) on CAMs only with viable chicken embryos. […]

Substance	relative potency of inhibition of VEGF-stimulated angiogenesis, molar basis	relative potency of inhibition of VEGF-stimulated angiogenesis, by weight of inhibitor (TM-601, Avastin and Lucentis compared on a mass basis)
bevacizumab [Avastin]	more effective than TM-601	
ranabizumab [Lucentis]	more effective than TM-601	most potent
